Data on 3 molecules can be found in US20130210039A1, “BLOOD INSULIN RESISTANCE AND DIABETES MARKER PROGRANULIN, METHOD FOR ANALYZING CONCENTRATION OF PROGRANULIN IN BLOOD SAMPLE, AND METHOD FOR SCREENING FOR SUBSTANCE THAT IMPROVES INSULIN RESISTANCE AND IMPROVES OR SUPPRESSES DIABETES” (priority 2010, published 2013).

For experiment [1], the system named is cultured adipocytes. The following applies: cultured adipocytes treated with the substance alone; cited from earlier work.
The test system of experiment [2] is progranulin (PGRN). Kind of experiment: Serum progranulin concentration in ob/ob mice orally administered pioglitazone (ELISA). In kind it is in vivo. Particulars: ten-week-old ob/ob mice, 30 mg/kg orally every day for 1 week; mean±S.D., n=5; p<0.05 vs Vehicle (2.57±0.28). As for the experimental part: Blood samples were collected from seven-week-old ob/ob mice and ob/+ mice, allowed to stand at room temperature, and centrifuged to prepare serum samples. Serum progranulin concentrations were measured by ELISA.
(§1) Ten-week-old ob/ob mice were orally administered with 30 mg/kg of a thiazolidine derivative (pioglitazone) every day for 1 week. An oral glucose tolerance test (OGTT) was performed on these mice and a control group (Vehicle) administered with only a solvent (10% (w/v) carboxymethyl cellulose).
In FIG. 9, the horizontal axis represents the type of group to be measured (pioglitazone administration group (Pio), control group (Vehicle), and ob/+ mice) and the vertical axis represents the serum progranulin concentration (Serum PGRN conc.) (μg/mL).
A general note: An ELISA detects its analyte on a solid surface through an enzyme-linked reagent.

Experiment [3] deals with progranulin (PGRN) mRNA. Kind of experiment: Progranulin mRNA expression in adipose tissues of ob/ob mice orally administered pioglitazone. In kind it is in vivo. Particulars: ten-week-old ob/ob mice, 30 mg/kg orally every day for 1 week, mean±S.D. The protocol: Adipose tissues (mesenteric fat tissue (MF), epididymal fat tissue (EF), and subcutaneous adipose tissue (SC)) were extracted from seven-week-old ob/ob mice and ob/+ mice and subjected to real-time PCR analysis to determine the expression levels of mRNA for progranulin (PGRN).
as §1
In FIG. 8, the horizontal axis represents the type of adipose tissue (epididymal fat tissue (EF), mesenteric fat tissue (MF), subcutaneous adipose tissue (SC) (white adipose tissue (WAT) and brown adipose tissue (BAT)), the vertical axis represents the relative expression level of progranulin mRNA (relative PRGN mRNA expression), “Vehicle” represents the control group, and “Pio” represents the pioglitazone administration group.

For experiment [4], the system named is Akt protein. Particulars: cultured adipose cells treated with progranulin protein, under insulin stimulation; cited from earlier work.

Turning to TNF-α, the “expression level of progranulin” value in experiment [1] is listed as “increased”.

`CCc1ccc(CCOc2ccc(CC3SC(=O)NC3=O)cc2)nc1` (stereo not drawn) [pioglitazone] displayed a serum progranulin concentration in experiment [2] of 1.86 ± 0.10 µg/mL. The “expression level of mRNA for progranulin in mesenteric fat tissue (MF)” value in experiment [3] (p<0.01 vs Vehicle) is given as 0.42±0.11 times that of the control group. In experiment [3] (p<0.05 vs Vehicle), the “expression level of mRNA for progranulin in epididymal fat tissue (EF)” value is 0.74±0.06 times that of the control group and the “expression level of mRNA for progranulin in subcutaneous adipose tissue (SC) (white adipose tissue (WAT))” value was 0.61±0.07 times that of the control group.

B1: progranulin protein: granulin precursor protein having seven kinds of granulin domains; insulin resistance marker (protein)
chain: MWTLVSWVALTAGLVAGTRCPDGQFCPVACCLDPGGASYSCCRPLLDKWPTTLSRHLGGPCQVDAHCSAGHSCIFTVSGTSSCCPFPEAVACGDGHHCCPRGFHCSADGRSCFQRSGNNSVGAIQCPDSQFECPDFSTCCVMVDGSWGCCPMPQASCCEDRVHCCPHGAFCDLVHTRCITPTGTHPLAKKLPAQRTNRAVALSSSVMCPDARSRCPDGSTCCELPSGKYGCCPMPNATCCSDHLHCCPQDTVCDLIQSKCLSKENATTDLLTKLPAHTVGDVKCDMEVSCPDGYTCCRLQSGAWGCCPFTQAVCCEDHIHCCPAGFTCDTQKGTCEQGPHQVPWMEKAPAHLSLPDPQALKRDVPCDNVSSCPSSDTCCQLTSGEWGCCPIPEAVCCSDHQHCCPQGYTCVAEGQCQRGSEIVAGLEKMPARRASLSHPRDIGCDQHTSCPVGQTCCPSLGGSWACCQLPHAVCCEDRQHCCPAGYTCNVKARSCEKEVVSAQPATFLARSPHVGVKDVECGEGHFCHDNQTCCRDNRQGWACCPYRQGVCCADRRHCCPAGFRCAARGTKCLRREAPRWDAPLRDPALRQLL
modifications: human
notes: granulin precursor protein having seven kinds of granulin domains; insulin resistance marker
As for B1, the “activity of Akt protein activated downstream of an insulin receptor” value in experiment [4] was “significantly suppressed”.
